Assay results taken from ChEMBL document CHEMBL1130000, “Studies of pyrrolo[1,2-alpha]benzimidazolequinone DT-diaphorase substrate activity, topoisomerase II inhibition activity, and DNA reductive alkylation” (J Med Chem, 1997).

Assays:
Format in all cases: functional
Rattus norvegicus = species: Rattus norvegicus; assay: Maximum velocity was determined for rat liver DT diaphorase substrate activity
Nucleic Acid [1] = assay: Compound tested for its selectivity for incorporation into poly(dG) DNA base pairs
Nucleic Acid [2] = assay: Compound tested for its selectivity for incorporation into poly(dA) DNA base pairs
Nucleic Acid [3] = assay: Compound tested for its selectivity for incorporation into poly(dA-dT) DNA base pairs

Row | Vmax (Rattus norvegicus) | Compound | Selectivity (Nucleic Acid [1]) | Selectivity (Nucleic Acid [2]) | Selectivity (Nucleic Acid [3])
1 | 20.4 nM/s | CC(=O)NC1=C(C)C(=O)c2c(nc3n2CC[C@@H]3OC(C)=O)C1=O | – | – | –
2 | 14.6 nM/s | CC(=O)NC1=C(C)C(=O)c2c(nc3n2CC[C@H]3OC(C)=O)C1=O | – | – | –
3 | 18.1 nM/s | CCCCC1=C(NC(C)=O)C(=O)c2nc3n(c2C1=O)CCC3 | – | – | –
4 | 15.4 nM/s | CCCCC1=C(NC(C)=O)C(=O)c2nc3n(c2C1=O)CCC3OC(C)=O (centres undefined) | – | – | –
5 | 16.7 nM/s | COCC(=O)O[C@@H]1CCn2c1nc1c2C(=O)C(C)=C(NC(C)=O)C1=O | – | – | –
6 | 28.2 nM/s | COCC(=O)O[C@H]1CCn2c1nc1c2C(=O)C(C)=C(NC(C)=O)C1=O | – | – | –
7 | 27.9 nM/s | CC(=O)NC1=C(C)C(=O)c2c(nc3n2CCC3OC(=O)c2ccccc2)C1=O (racemic) | – | – | –
8 | 38.6 nM/s | CC(=O)NC1=C(C)C(=O)c2c(nc3n2CCC3OC(C)=O)C1=O (racemic) | – | – | –
9 | 42.3 nM/s | CCCC(=O)OC1CCn2c1nc1c2C(=O)C(C)=C(NC(C)=O)C1=O (racemic) | – | – | –
10 | 9.8 nM/s | COCC(=O)OC1CCn2c1nc1c2C(=O)C(C)=C(NC(C)=O)C1=O (racemic) | – | – | –

Row | Compound | Vmax (Rattus norvegicus) | Selectivity (Nucleic Acid [1]) | Selectivity (Nucleic Acid [2]) | Selectivity (Nucleic Acid [3])
11 | CC(=O)N[C@H]1CCn2c1nc1c2C(=O)C(C)=C(N2CC2)C1=O | 2.2 nM/s | 12.1% | 32.7% | 38%
12 | CC(=O)NC1CCn2c1nc1c2C(=O)C(C)=C(N2CC2)C1=O (racemic) | 8.3 nM/s | 8.2% | 41.5% | 28%
13 | CC(=O)OC1CCn2c1nc1c2C(=O)C(C)=C(N2CC2)C1=O (racemic) | 66.5 nM/s | – | – | –
14 | CCCCC1=C(N2CC2)C(=O)c2nc3n(c2C1=O)CCC3OC(C)=O (racemic) | 8.5 nM/s | – | – | –
15 | CC(=O)O[C@H]1CCn2c1nc1c2C(=O)C(C)=C(N2CC2)C1=O (stereo in doubt; (+)) | 83.4 nM/s | – | 5.9% | –
16 | CC(=O)O[C@H]1CCn2c1nc1c2C(=O)C(C)=C(N2CC2)C1=O (stereo in doubt; (-)) | 62.6 nM/s | – | 8.5% | –
